The source of these data is US20140256735A1, “METHOD FOR ASSESSING A LIVER OF A PATIENT HAVING A CHRONIC HEPATITIS B VIRUS INFECTION” (PURDUE RESEARCH FOUNDATION, priority 2011, published 2014).

What all share (format): cell-based
The test system of data set [1] is hepatitis B virus. The experiment in a line: Hepatitis B virus replication in HepAD38 cells (genome equivalents in intracellular virions, core antigen immunoblots, viral RNA PCR). Conditions: HepAD38 cells without tetracycline 10 days, 250 nM or 500 nM added on day 8 for 48 h or day 9 for 24 h. As for the experimental part: (§1) FIGS. 7A-D show enhanced expression of the Suz12 repressed genes and proliferation genes in the presence of hepatitis B virus replication. […] HepAD38 cells were grown with (+) or without (−) tetracycline for 10 days, i.e. without (−) or with (+) hepatitis B virus replication, respectively. Hepatitis B virus genome equivalents were quantified by real-time PCR of DNA isolated from purified intracellular virions as described (Wang et al., Hepatology, 53:1137-47, 2011). (Left panel) Effect of DMSO addition (5.0 μl) on hepatitis B virus replication. (Right panel) 250 nM or 500 nM BI 2536 dissolved in DMSO (5.0 μl) added on day 8 for 48 h or day 9 for 24 h, as indicated, prior to cell harvesting. Results represent the average of three independent experiments. Error bars indicate+/−standard 1 error of the mean. […] Relative intensity of indicated protein levels was quantified by ImageJ software vs. actin. […] Quantification is relative to GAPDH used as internal control. […]
(§2) Whole cell extract isolated without (−) or with (+) 1 addition of BI 2536 were immunoblotted for hepatitis B virus core antigen, caspase 3 and cleaved/active caspase. […] Expression of viral RNA was quantified by real-time PCR employing primer pairs described by Zhang et al. (Hepatology 53:1476-1485, 2011). […] Quantification of indicated proteins is by ImageJ software vs. actin. […]

Data set [2] deals with HepAD38 cells. The experiment in a line: Apoptosis in HBV-replicating HepAD38 cells by immunoblot of pro-caspase-3 and caspase-3. Conditions: 250 nM or 500 nM added on day 8 for 48 h or day 9 for 24 h. The source says: Whole cell extract isolated without (−) or with (+) 1 addition of BI 2536 were immunoblotted for hepatitis B virus core antigen, caspase 3 and cleaved/active caspase. […] Expression of viral RNA was quantified by real-time PCR employing primer pairs described by Zhang et al. (Hepatology 53:1476-1485, 2011). Results are the average from two independent WCE preparations. Error bars indicate+/−standard error of the mean. […] Quantification of indicated proteins is by ImageJ software vs. actin. Results are the average from two independent WCE preparations. Error bars indicate+/−standard error of the mean.
(§3) Employing the HepAD38 cell line that supports hepatitis B virus replication following tetracycline removal (Ladner et al., Antimicrobial Agents and Chemotherapy, 41:1715-1720, 1997), viral replication as well as expression of the Suz12-repressed and proliferation cluster genes were quantified 10 days after induction of hepatitis B virus replication (FIG. 7). Also, the effect of Plk1 inhibition on viral replication and expression of the proliferation cluster and Suz12 target genes was investigated. […] Under these conditions of Plk1 inhibition, expression of the proliferation cluster and Suz12-repressed genes on day 10 of hepatitis B virus replication was quantified (FIG. 7C and D). Expression of both gene clusters increased in the presence of hepatitis B virus replication (FIG. 7C and D).
(In western blotting, separated proteins are transferred to a membrane and probed.)

In data set [3] the test system is Suz12 and Znf198. The data set can be described thus: Immunoblots of Suz12 and Znf198 protein levels in HepAD38 cell lysates. The note with it: HepAD38 cells, day 10 of HBV replication; 500 nM for 24 h; vs. actin. As to the method:
as §1, §2

Data set [4] has as its system proliferation gene cluster and Suz12 repressed genes. The experiment in a line: Real-time PCR of proliferation gene cluster and Suz12 repressed genes in HepAD38 cells. The note with it: day 10 of HBV replication, 500 nM for 24 h, relative to GAPDH. As to the method:
FIGS. 7A-D show enhanced expression of the Suz12 repressed genes and proliferation genes in the presence of hepatitis B virus replication. […] HepAD38 cells were grown with (+) or without (−) tetracycline for 10 days, i.e. without (−) or with (+) hepatitis B virus replication, respectively. Hepatitis B virus genome equivalents were quantified by real-time PCR of DNA isolated from purified intracellular virions as described (Wang et al., Hepatology, 53:1137-47, 2011). (Left panel) Effect of DMSO addition (5.0 μl) on hepatitis B virus replication. (Right panel) 250 nM or 500 nM BI 2536 dissolved in DMSO (5.0 μl) added on day 8 for 48 h or day 9 for 24 h, as indicated, prior to cell harvesting. Results represent the average of three independent experiments. Error bars indicate+/−standard 1 error of the mean. […] Relative intensity of indicated protein levels was quantified by ImageJ software vs. actin. A representative experiment is shown from three independent experiments. […] Quantification is relative to GAPDH used as internal control. Results are from three independent RNA isolations. PCR assays were performed in triplicates. Error bars indicate+/−standard error of the mean.
cDNA was synthesized from 2.0 μg total RNA using iSCRIPT cDNA synthesis kit (Bio-Rad). Real-time PCR reactions were performed in triplicates and normalized to GAPDH.
as §3, with “Expression of both gene clusters increased in the presence of hepatitis B virus replication (FIG. 7C and D).” left out
On the technique in general: Quantitative PCR measures a nucleic acid by following its amplification.

With `CC[C@@H]1C(=O)N(C)c2cnc(Nc3ccc(C(=O)NC4CCN(C)CC4)cc3OC)nc2N1C1CCCC1` [BI 2536], the entries for the “hepatitis B virus replication (genome equivalents in purified intracellular virions, core antigen immunoblots, viral RNA PCR)” value in data set [1] and in data set [1] (listed as BI2536) were “suppressed hepatitis B virus replication” and “significantly reduced”, respectively. The “apoptosis (levels of pro-caspase-3 and caspase-3)” value in data set [2] is listed as “did not induce apoptosis”. Also, in data set [3], the “protein level of Suz12” value was “increased”. The “protein level of Znf198” value in data set [3] was “increased”. The results for the “expression of the Suz12 repressed genes DKK2, EpCAM and IGFII” value in data set [4] and in data set [4] (listed as BI2536) were “significantly decreased” and “significantly reduced”, respectively. Besides, in data set [4], the “expression of the proliferation genes” value is on record as “significantly reduced”.
